According to publication PMC12134304, “Exploring novel of 1,2,4-triazolo[4,3-a]quinoxaline sulfonamide regioisomers as anti-diabetic and anti-Alzheimer agents with in-silico molecular docking simulation” (Scientific Reports, 2025):

What was measured:
Assay type in all cases: biochemical
[1] = target: α-amylase; experiment: in vitro enzyme inhibition assay (Wickramaratne method); settings: read-out: The in vitro median inhibitory concentrations (IC50 ± SE) (μM) / Anti-diabetic activity ^a / α-amylase
[2] = target: α-glucosidase; experiment: in vitro enzyme inhibition assay (Pistia-Brueggeman method); settings: read-out: The in vitro median inhibitory concentrations (IC50 ± SE) (μM) / Anti-diabetic activity ^a / α-glucosidase
[3] = target: acetylcholinesterase (AChE) (Homo sapiens, UniProt P22303); experiment: Ellman's method, single-concentration percent inhibition
Sequence of acetylcholinesterase (AChE) (P22303 32-614): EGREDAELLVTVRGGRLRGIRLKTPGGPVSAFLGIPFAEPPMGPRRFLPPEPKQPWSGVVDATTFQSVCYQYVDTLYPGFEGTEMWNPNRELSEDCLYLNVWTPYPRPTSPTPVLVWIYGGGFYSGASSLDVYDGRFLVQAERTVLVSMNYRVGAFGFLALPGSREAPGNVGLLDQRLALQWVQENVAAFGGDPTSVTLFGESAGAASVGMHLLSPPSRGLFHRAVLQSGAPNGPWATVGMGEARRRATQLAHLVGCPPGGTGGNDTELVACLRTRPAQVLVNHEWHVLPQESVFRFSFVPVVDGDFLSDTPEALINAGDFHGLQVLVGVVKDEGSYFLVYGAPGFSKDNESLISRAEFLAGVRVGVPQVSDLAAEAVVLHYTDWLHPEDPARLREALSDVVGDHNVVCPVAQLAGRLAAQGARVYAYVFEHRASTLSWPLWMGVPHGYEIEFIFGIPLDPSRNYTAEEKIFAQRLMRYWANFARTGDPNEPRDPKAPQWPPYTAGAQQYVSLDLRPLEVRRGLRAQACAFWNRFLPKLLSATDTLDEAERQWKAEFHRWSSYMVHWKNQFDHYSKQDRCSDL

SMILES	IC50 [1] [µM]	IC50 [2] [µM]	The in vitro inhibitory percentage (IP ± SE) of the designed two isomers sulfonamide quinoxaline derivatives at 100 μM / Anti-Alzheimer activity ^a / AChE [3]
C=CCNc1nnc2c(N3CCCC3)nc3ccc(S(=O)(=O)N4CCCC4)cc3n12 [10a, N-Allyl-4-(pyrrolidin-1-yl)-8-(pyrrolidin-1-ylsulfonyl)-[1,2,4]triazolo[4,3-a]quinoxalin-1-amine]	6.89 ± 0.09	3.46 ± 0.06	
Cc1nnc2c(N3CCCC3)nc3cc(S(=O)(=O)N4CCCC4)ccc3n12 [11b, 1-Methyl-4-(pyrrolidin-1-yl)-7-(pyrrolidin-1-ylsulfonyl)-[1,2,4]triazolo[4,3-a]quinoxaline]			44.78 ± 0.01
